Literature values, collected in patent US11191745B2, “Silica nanoparticle with an insoluble drug” (CITY OF HOPE, priority 2017, dated 2021).

System: plasma proteins
Conditions: systemically administered

**Q.** Which “drug bound to plasma proteins” value does the source give for `CC(=O)O[C@H]1C(=O)[C@@]2(C)[C@H]([C@H](OC(=O)c3ccccc3)[C@]3(O)C[C@H](OC(=O)[C@H](O)[C@@H](NC(=O)c4ccccc4)c4ccccc4)C(C)=C1C3(C)C)[C@]1(OC(C)=O)CO[C@@H]1C[C@@H]2O` [PTX, Paclitaxel] here?
**A.** The value was “more than 90%”.
